From patent US20240408093A1, “HETEROBIFUNCTIONAL COMPOUNDS AND THEIR USE IN TREATING DISEASE” (HALDA THERAPEUTICS OPCO, INC., priority 2022, published 2024)

Key:
[1] = molecular target: T1, KRAS G12C (Homo sapiens, UniProt P01116, C118S/C51S/C80L/G12C); test: Release of effector protein ligand from heterobifunctional compounds, KRAS G12C; format: biochemical; settings: detected A1-3
T1 construct: KRAS G12C C51S C80L C118S (amino acids 1-169)
Procedure: (§1) Exemplary heterobifunctional compounds were evaluated for the ability to release an effector protein ligand in the presence of KRAS G12C, BTK, or EGFR T790M L858R target proteins.
(§2) Samples for mass spectrometry for KRAS G12C, BTK, and EGFR T790M L858R were prepared as described above for the intact mass spectrometry target engagement experiment, respectively, except rather than flash-freezing, 20 μL of sample was quenched with 50 μL of 100% acetonitrile. As well, a buffer-only control was used to detect latent release of effector protein ligand analyte. Internal standard (IS) solution consisted of 200 ng/mL propranolol and 50 ng/mL diclofenac in methanol:water 1:1 (v/v). A 4-point calibration curve (calibration standard (CS)) consisting of each analyte was made at final concentrations of 3 nM, 30 nM, 300 nM, and 3000 nM. Unknown samples were diluted such that the unknown analyte concentration was in the linear range of the calibration curve.
(§3) Samples for all proteins were prepared and analyzed from the following:
(§4) Samples were further analyzed with AB Sciex Triple Quad 5500 system coupled with Shimadzu Prominence HPLC.

[2] = molecular target: T2, KRAS G12C C51S C80L C118S (amino acids 1-169) (Homo sapiens, UniProt P01116, C118S/C51S/C80L/G12C); test: Intact mass spec target engagement, KRAS G12C; format: binding; settings: 24 hours post-reaction; 5 μM KRAS G12C, 50 μM compound
T2 construct: KRAS G12C C51S C80L C118S (amino acids 1-169)
Procedure: (§5) Exemplary heterobifunctional compounds were evaluated for intact mass spectrometry target engagement against KRAS G12C, BTK, or EGFR T790M L858R (amino acids 669-1011; Accession Number NP_005219.2), separately.
(§6) KRAS G12C: Samples were prepared using 5 μM of KRAS G12C C51S C80L C118S (amino acids 1-169) and 50 μM of heterobifunctional compound in a buffer containing 20 mM HEPES pH 7.5, 150 mM NaCl, and 1 mM TCEP. Protein was incubated with heterobifunctional compound at RT or 37° C. for the given amounts of time then flash-frozen and stored at −80° C. until analysis. Samples were transferred to HPLC vials and injected into Dionex UltiMate 3000 FLM HPLC system with a proprietary column (2.1×50 mm, 5 μm, 1000 Å) at 0.3 mL/minute in a column compartment at 50° C. and run on a Q Exactive Hybrid Quadrupole-Orbitrap Mass Spectrometer. Ion Max source with HESI-II probe were used, with a source voltage of 3.5 kV.
(§7) Results showing ability of exemplary heterobifunctional compounds to generate a modified target protein via intact mass spectrometry are shown in Table 13 below. The amount of different components identified by mass spectrometry at 24 hours post-reaction are listed in Table 14, wherein the different components include: • Un-modified Protein—this is starting protein material (e.g., KRAS G12C, BTK, or EGFR T790M L858R) that remained unchanged in the experiment. • Elimination-Conjugate Product—this is a conjugate formed by reaction of protein with the heterobifunctional compound to form a protein conjugate of the following general formula: […]
(§8) Exemplary Other Material can include, for example, residual impurities in the protein starting material used to conduct the experiment.

[3] = molecular target: T3, BTK (amino acids 387-659) (Homo sapiens, UniProt Q06187); test: Intact mass spec target engagement, BTK; format: binding; settings: 24 hours post-reaction; 2 μM BTK, 20 μM compound
T3 construct: BTK (amino acids 387-659)
T3 sequence (Q06187 387-659): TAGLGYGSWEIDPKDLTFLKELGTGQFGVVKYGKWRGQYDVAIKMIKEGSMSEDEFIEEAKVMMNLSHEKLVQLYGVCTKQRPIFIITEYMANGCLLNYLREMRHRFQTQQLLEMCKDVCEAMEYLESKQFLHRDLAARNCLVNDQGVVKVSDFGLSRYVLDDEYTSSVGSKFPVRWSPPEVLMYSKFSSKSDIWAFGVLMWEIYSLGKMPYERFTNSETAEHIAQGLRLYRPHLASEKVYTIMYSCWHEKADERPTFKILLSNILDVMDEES
Procedure: as §5
as §6, with “BTK: Samples” for “KRAS G12C: Samples”, “using 2” for “using 5”, “of BTK” for “of KRAS G12C C51S C80L C118S”, “acids 387-659)” for “acids 1-169)”, “and 20” for “and 50”, “NaCl,” for “NaCl, and”
as §7, §8

[4] = molecular target: T4, BTK (Homo sapiens, UniProt Q06187); test: Release of effector protein ligand from heterobifunctional compounds, BTK; format: biochemical; settings: detected A1-3
T4 construct: BTK (amino acids 387-659)
T4 sequence (Q06187 387-659): as above
Procedure: as §1, §2, §3, §4

[5] = system: HEK293 cells; test: Cellular growth inhibition assay, HEK293 cells (Example 15); format: cell-based; settings: Homo sapiens, 72 h, three days, CellTiter-Glo 2.0
Procedure: (§9) HEK293 and HeLa cells were cultured in DMEM medium supplemented with 10% fetal bovine serum and 1% Penn/Strep. Cells were seeded in white 384-well plates at 500 cells/well in 25 μL complete medium. Following seeding, plates were spun at 300×g for three minutes and cultured at 37° C. with 5% CO2 in a humidified tissue culture incubator.
(§10) After 24 hours, compounds were titrated in 100% DMSO and diluted in complete cell culture medium. A 25 μL aliquot of compound/media mixture was added to cells to bring total volume in the wells to 50 μL. DMSO alone was used as a negative control. Plates were then spun at 300×g for three minutes and stored at 37° C. with 5% CO2 for three days.
(§11) On Day 0 and Day 3 of compound treatment, cell viability was quantified with CellTiter-Glo 2.0 reagent (Promega). After equilibrating microplates at room temperature for 30 minutes, 25 μL CellTiter-Glo 2.0 reagent was dispensed into each well to bring total volume to 75 μL. Plates were mixed on a shaker for 2 minutes at 500 rpm, followed by a 10-minute incubation at room temperature. Following a quick spin, luminescence readings were measured with an EnVision Plate Reader. Data was normalized to DMSO treated Day 0 and Day 3 readings. […]

[6] = system: HeLa cells; test: Cellular growth inhibition assay, HeLa cells (Example 15); format: cell-based; settings: Homo sapiens, 72 h, three days, CellTiter-Glo 2.0
Procedure: as §9, §10, §11

[7] = molecular target: T5, full-length BTK (amino acids 1-659) (Homo sapiens, UniProt Q06187); test: KdELECT binding assay, BTK
T5 construct: full-length BTK (amino acids 1-659); host or cells: mammalian cells (HEK-293)
T5 sequence (Q06187 whole entry, the tested form may be a part): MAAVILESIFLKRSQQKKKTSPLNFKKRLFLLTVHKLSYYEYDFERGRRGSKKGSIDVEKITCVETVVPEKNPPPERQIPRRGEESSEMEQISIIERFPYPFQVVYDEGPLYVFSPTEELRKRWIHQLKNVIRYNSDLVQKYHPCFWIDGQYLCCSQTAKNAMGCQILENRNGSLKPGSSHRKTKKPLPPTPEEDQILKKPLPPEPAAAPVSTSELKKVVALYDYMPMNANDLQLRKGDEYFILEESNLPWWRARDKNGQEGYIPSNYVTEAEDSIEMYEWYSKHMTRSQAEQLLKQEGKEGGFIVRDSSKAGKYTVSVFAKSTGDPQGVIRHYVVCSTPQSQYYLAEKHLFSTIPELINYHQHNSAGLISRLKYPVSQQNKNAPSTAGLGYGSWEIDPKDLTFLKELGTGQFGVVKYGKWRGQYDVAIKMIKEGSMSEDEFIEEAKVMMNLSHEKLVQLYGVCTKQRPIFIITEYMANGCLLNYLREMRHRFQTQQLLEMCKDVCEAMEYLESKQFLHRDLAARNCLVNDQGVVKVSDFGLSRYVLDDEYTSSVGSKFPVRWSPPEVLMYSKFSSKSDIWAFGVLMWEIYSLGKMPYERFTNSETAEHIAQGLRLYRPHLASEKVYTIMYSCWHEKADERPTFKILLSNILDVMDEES
Procedure: Exemplary compounds were tested for ability to bind to full-length BTK (amino acids 1-659; Accession Number NP_000052.1) expressed from mammalian cells. Compounds were tested using the KdELECT assay.
Kinase-tagged T7 phage strains were prepared in an E. coli host derived from the BL21 strain. E. coli were grown to log-phase and infected with T7 phage and incubated with shaking at 32° C. until lysis. The lysates were centrifuged and filtered to remove cell debris. The remaining kinases were produced in HEK-293 cells and subsequently tagged with DNA for qPCR detection. Streptavidin-coated magnetic beads were treated with biotinylated small molecule ligands for 30 minutes at room temperature to generate affinity resins for kinase assays. The liganded beads were blocked with excess biotin and washed with blocking buffer (SeaBlock (Pierce), 1% BSA, 0.05% Tween 20, 1 mM DTT) to remove unbound ligand and to reduce non-specific binding. Binding reactions were assembled by combining kinases, liganded affinity beads, and test compounds in 1× binding buffer (20% SeaBlock, 0.17× PBS, 0.05% Tween 20, 6 mM DTT). Test compounds were prepared as 111× stocks in 100% DMSO. Kd values were determined using an 11-point 3-fold compound dilution series with three DMSO control points. All compounds for Kd measurements are distributed by acoustic transfer (non-contact dispensing) in 100% DMSO. The compounds were then diluted directly into the assays such that the final concentration of DMSO was 0.9%. All reactions performed in polypropylene 384-well plate. Each was a final volume of 0.02 mL. The assay plates were incubated at room temperature with shaking for 1 hour and the affinity beads were washed with wash buffer (1× PBS, 0.05% Tween 20). The beads were then re-suspended in elution buffer (1× PBS, 0.05% Tween 20, 0.5 μM nonbiotinylated affinity ligand) and incubated at room temperature with shaking for 30 minutes. The kinase concentration in the eluates was measured by qPCR.

[8] = system: HeLa cells (ATCC CCL-2); test: Cellular growth inhibition assay, HeLa cells (Example 16); format: cell-based; settings: Homo sapiens, 72 hours, CellTiter-Glo 2.0
[9] = system: HEK293 cells (ATCC CRL-1573); test: Cellular growth inhibition assay, HEK293 cells (Example 16); format: cell-based; settings: Homo sapiens, 72 hours, CellTiter-Glo 2.0
[10] = molecular target: T6, GSPT1 (Homo sapiens, UniProt P15170+Q96SW2); test: GSPT1 HiBiT degradation assay; format: cell-based; settings: HEK293 LgBiT GSPT1 HiBiT cells, 6 hours
T6 construct: host or cells: HEK293 LgBiT / GSPT1 HiBiT CRISPR knock-in
T6 sequence (P15170 whole entry): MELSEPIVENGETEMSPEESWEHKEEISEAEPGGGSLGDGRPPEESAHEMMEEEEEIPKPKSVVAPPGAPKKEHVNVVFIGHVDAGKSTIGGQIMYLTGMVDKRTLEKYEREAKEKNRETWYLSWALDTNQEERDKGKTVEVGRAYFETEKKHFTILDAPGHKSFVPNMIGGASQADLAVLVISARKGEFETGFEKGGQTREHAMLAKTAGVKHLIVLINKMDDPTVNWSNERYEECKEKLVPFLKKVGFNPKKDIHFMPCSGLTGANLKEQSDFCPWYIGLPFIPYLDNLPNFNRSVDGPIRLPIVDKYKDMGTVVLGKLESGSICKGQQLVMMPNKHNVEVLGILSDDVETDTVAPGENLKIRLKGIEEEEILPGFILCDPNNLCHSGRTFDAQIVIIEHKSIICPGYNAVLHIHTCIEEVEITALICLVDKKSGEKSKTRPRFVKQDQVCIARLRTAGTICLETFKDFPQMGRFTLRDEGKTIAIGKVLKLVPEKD
T6 sequence (Q96SW2 whole entry): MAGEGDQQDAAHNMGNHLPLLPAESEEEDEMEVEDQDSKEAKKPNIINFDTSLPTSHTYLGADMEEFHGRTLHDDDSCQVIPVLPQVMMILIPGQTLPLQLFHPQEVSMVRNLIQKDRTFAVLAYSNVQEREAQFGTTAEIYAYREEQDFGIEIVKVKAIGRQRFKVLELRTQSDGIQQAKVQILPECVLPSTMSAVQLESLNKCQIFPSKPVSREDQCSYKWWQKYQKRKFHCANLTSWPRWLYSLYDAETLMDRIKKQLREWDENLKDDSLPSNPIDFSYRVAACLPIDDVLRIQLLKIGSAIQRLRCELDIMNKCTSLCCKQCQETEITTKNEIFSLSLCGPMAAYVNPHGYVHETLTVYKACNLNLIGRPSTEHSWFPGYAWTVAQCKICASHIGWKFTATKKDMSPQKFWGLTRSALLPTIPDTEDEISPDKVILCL
T6 sequence (Q16531 whole entry partner): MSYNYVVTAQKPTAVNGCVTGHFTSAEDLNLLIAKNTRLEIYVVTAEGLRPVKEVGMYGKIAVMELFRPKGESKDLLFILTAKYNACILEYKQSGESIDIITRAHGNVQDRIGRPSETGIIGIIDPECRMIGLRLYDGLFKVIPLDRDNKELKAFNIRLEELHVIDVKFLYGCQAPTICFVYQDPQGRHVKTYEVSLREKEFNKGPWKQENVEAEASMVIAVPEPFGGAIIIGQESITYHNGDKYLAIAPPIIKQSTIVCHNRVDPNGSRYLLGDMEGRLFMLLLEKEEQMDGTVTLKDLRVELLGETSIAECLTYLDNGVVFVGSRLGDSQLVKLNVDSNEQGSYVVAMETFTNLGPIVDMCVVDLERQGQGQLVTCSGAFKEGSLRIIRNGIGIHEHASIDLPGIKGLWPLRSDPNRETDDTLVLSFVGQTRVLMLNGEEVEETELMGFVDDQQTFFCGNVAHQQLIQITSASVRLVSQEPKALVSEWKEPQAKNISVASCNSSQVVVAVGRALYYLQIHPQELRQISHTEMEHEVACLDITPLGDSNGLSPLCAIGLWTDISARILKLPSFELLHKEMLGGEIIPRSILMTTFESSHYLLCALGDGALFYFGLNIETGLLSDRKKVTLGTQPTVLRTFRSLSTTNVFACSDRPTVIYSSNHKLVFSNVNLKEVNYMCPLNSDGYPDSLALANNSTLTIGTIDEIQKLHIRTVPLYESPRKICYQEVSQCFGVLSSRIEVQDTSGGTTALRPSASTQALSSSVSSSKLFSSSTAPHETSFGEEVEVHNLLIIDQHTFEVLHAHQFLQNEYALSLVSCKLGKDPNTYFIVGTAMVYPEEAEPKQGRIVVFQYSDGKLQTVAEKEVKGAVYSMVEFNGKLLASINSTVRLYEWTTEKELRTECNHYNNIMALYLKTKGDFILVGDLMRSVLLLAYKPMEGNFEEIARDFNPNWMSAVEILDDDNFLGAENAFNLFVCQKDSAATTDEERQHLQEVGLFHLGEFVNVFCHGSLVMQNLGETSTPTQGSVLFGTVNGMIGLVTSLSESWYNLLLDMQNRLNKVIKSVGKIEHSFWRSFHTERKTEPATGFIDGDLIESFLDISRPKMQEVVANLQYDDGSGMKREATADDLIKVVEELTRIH
Procedure, shortened: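 HEK293 CRISPR knock-in cells expressing LgBiT and GSPT1-HiBiT were seeded at 1000 cells/well and, after 18-24 h, treated with titrated compound plus endurazine (0.5× final) at 37 °C. Luminescence read after 6 h; loss of signal reflects GSPT1 degradation, giving DC50.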

Structure (SMILES): C=C(Cn1cc(CNc2cc(N3CCCC[C@H]3CCO)nc3c(CC)cnn23)ccc1=O)C(=O)N1CCN(c2nc(OC[C@@H]3CCCN3C)nc3c2CCN(c2cccc4cccc(Cl)c24)C3)C[C@@H]1CC#N [Compound A1-2]
- Concentration of Effector Protein Ligand ([1]; Matrix Buffer + Protein (KRAS G12C), Time 0 h): 328 nM
- Concentration of Effector Protein Ligand ([1]; Matrix Buffer + Protein (KRAS G12C), Time 2 h): 556 nM
- Concentration of Effector Protein Ligand ([1]; Matrix Buffer + Protein (KRAS G12C), Time 8 h): 1170 nM
- Concentration of Effector Protein Ligand ([1]; Matrix Buffer + Protein (KRAS G12C), Time 24 h): 2020 nM
- Concentration of Effector Protein Ligand ([1]; Matrix Buffer, Time 0 h): 55.8 nM
- Concentration of Effector Protein Ligand ([1]; Matrix Buffer, Time 2 h): 85.3 nM
- Concentration of Effector Protein Ligand ([1]; Matrix Buffer, Time 8 h): 166 nM
- Concentration of Effector Protein Ligand ([1]; Matrix Buffer, Time 24 h): 406 nM
- Percent Other Material [2]: 10%
- Percent of Addition-Conjugate Product [2]: 5%
- Percent of Elimination-Conjugate Product [2]: 83%
- Percent of Un-modified Protein [2]: 2%

Structure (SMILES): C=C(Cn1cc(CNc2cc(N3CCCC[C@H]3CCO)nc3c(CC)cnn23)ccc1=O)C(=O)N1CCC[C@@H](n2nc(-c3ccc(Oc4ccccc4)cc3)c3c(N)ncnc32)C1 [Compound A1-4]
- Percent Other Material [3]: 0%
- Percent of Addition-Conjugate Product [3]: 24%
- Percent of Elimination-Conjugate Product [3]: 72%
- Percent of Un-modified Protein [3]: 4%
- Concentration of Effector Protein Ligand ([4]; Matrix Buffer + Protein (BTK), Time 0 h): 17.8 nM
- Concentration of Effector Protein Ligand ([4]; Matrix Buffer + Protein (BTK), Time 1 h): 281 nM
- Concentration of Effector Protein Ligand ([4]; Matrix Buffer + Protein (BTK), Time 4 h): 506 nM
- Concentration of Effector Protein Ligand ([4]; Matrix Buffer + Protein (BTK), Time 22 h): 460 nM
- Concentration of Effector Protein Ligand ([4]; Matrix Buffer, Time 0 h): 4.16 nM
- Concentration of Effector Protein Ligand ([4]; Matrix Buffer, Time 1 h): 4 nM
- Concentration of Effector Protein Ligand ([4]; Matrix Buffer, Time 4 h): 4.49 nM
- Concentration of Effector Protein Ligand ([4]; Matrix Buffer, Time 22 h): 10.4 nM

Structure (SMILES): C=C(CN(C(=O)NCc1ccc2c(c1)CN(C1CCC(=O)NC1=O)C2=O)c1ccc(C)c(Cl)c1)C(=O)N1CCC[C@@H](n2nc(-c3ccc(Oc4ccccc4)cc3)c3c(N)ncnc32)C1 (stereo partly drawn) [Compound I-4]
- GI50 [5]: 1500 to 10000 nM
- GI50 [6]: > 10000 nM

Structure (SMILES): C=C(COc1cc(Cl)cc(NC(=O)NCc2ccc3c(c2)CN(C2CCC(=O)NC2=O)C3=O)c1)C(=O)N1CCC[C@@H](n2nc(-c3ccc(Oc4ccccc4)cc3)c3c(N)ncnc32)C1 (stereo partly drawn) [Compound I-114]
- Kd [7]: < 50 nM
- GI50 [8]: 1500 to 10000 nM
- GI50 [9]: 500 to 1500 nM
- DC50 [10]: 500 to 2500 nM
